# Measured values published in patent US5010058A, “3,5,6-substituted derivatives of 1,2-O-isopropylidene-α,D-glucofuranose and intermediates for preparing these derivatives” (501 Greenwich Pharmaceuticals Incorporated, priority 1989, dated 1991).
# Columns and labels:
# [1] = tested on: normal spleen cells / splenic T-lymphocytes (Con-A stimulated); details: THERAFECTIN comparison; cited from earlier work
# [2] = in vivo; cited from earlier work
# [3] = tested on: BUD-8 skin cell fibroblasts; test: Proliferation of BUD-8 skin cell fibroblasts (3H-thymidine uptake); format: cell-based, human; details: for 3H-Thymidine uptake by BUD-8 skin cells: triplicates ± SD
# Method: The human skin cell fibroblast line, BUD-8, was originally derived from the normal skin of a person and can now be obtained from the American Type Culture Collection.
# The number of BUD-8 cells was expanded for use by culture in 25 cm^2 flasks at 37° C. in an atmosphere of 5% CO2 in air. At approximately 4-5 five day intervals, or when confluence was reached, the cells were passaged. This was accomplished by detaching the cells with a Teflon scraper, washing and reseeding the cells at a lower density into fresh tissue culture flasks.
# The effect of these compound on the proliferative capacity of human BUD-8 skin fibroblasts was measured with the use of a ^3 H-thymidine incorporation assay using culture conditions which were similar to those used for the Con-A blastogenesis assay, described previously. Cultured skin cells were detached from the surface of tissue culture flasks mechanically with a Teflon scraper. The cells were washed, resuspended in incubation medium and the viabilities were determined. These cells were then plated in triplicate at a density of 2×10^3 cells/0.1 ml/microtiter well for the proliferation assays. […] Eighteen hours later, each of the BUD-8 cultures was examined morphologically for evidence of compound-induced toxicity such as cell rounding or granularity. The thymidine-pulsed cells were then precipitated and the amount of ^3 H-thymidine incorporation was counted in a liquid scintillation counter. […]
# ^a Experimental compounds were first suspended in DMSO or ethanol,
# ^b The effect of experimental compounds on the proliferation of BUD8
compound,measurement,setting,value
"CN(C)CCCO[C@@H]1[C@H]2OC(C)(C)O[C@H]2O[C@@H]1[C@H](O)CO [THERAFECTIN, 1,2-O-Isopropylidene-3-O-3('N,N'-dimethylamino-n-propyl)-α,D-glucofuranose]",usual concentration for significant inhibition,[1],"1,000 ug/ml"
same,toxicity,[2],little toxicity
same,utility in rheumatoid arthritis,[2],demonstrated utility in managing the signs and symptoms of rheumatoid arthritis
"CCCCCCCOC1C(C(C)O)OC2OC(C)(C)OC21 [Ex. 3, 1,2-O-Isopropylidene-3-O-(n-heptyl)-6-deoxy-α,D-glucofuranose]",anti-proliferative effect on skin cells,[3],anti-proliferative effect that was statistically significant
same,inhibition at 1 µg/mL,"[3]; Homo sapiens, Fibroblast, compound 1 ug/ml, percent change from no compound, read-out: 3H-Thymidine uptake by BUD-8 skin cells, % effect",58%
same,inhibition at 10 µg/mL,"[3]; Homo sapiens, Fibroblast, compound 10 ug/ml, percent change from no compound, read-out: 3H-Thymidine uptake by BUD-8 skin cells, % effect",49%
same,inhibition at 25 µg/mL,"[3]; Homo sapiens, Fibroblast, compound 25 ug/ml, percent change from no compound, read-out: 3H-Thymidine uptake by BUD-8 skin cells, % effect",19%
same,inhibition at 100 µg/mL,"[3]; Homo sapiens, Fibroblast, compound 100 ug/ml, percent change from no compound, read-out: 3H-Thymidine uptake by BUD-8 skin cells, % effect",30%
same,inhibition at 300 µg/mL,"[3]; Homo sapiens, Fibroblast, compound 300 ug/ml, percent change from no compound, read-out: 3H-Thymidine uptake by BUD-8 skin cells, % effect",66%
same,inhibition at 750 µg/mL,"[3]; Homo sapiens, Fibroblast, compound 750 ug/ml, percent change from no compound, read-out: 3H-Thymidine uptake by BUD-8 skin cells, % effect",43%
same,3H-Thymidine uptake by BUD-8 skin cells,[3]; compound 1 ug/ml,"2,589 ± 202 cpm"
same,3H-Thymidine uptake by BUD-8 skin cells,[3]; compound 10 ug/ml,"3,139 ± 232 cpm"
same,3H-Thymidine uptake by BUD-8 skin cells,[3]; compound 25 ug/ml,"4,978 ± 632 cpm"
same,3H-Thymidine uptake by BUD-8 skin cells,[3]; compound 100 ug/ml,"4,288 ± 723 cpm"
same,3H-Thymidine uptake by BUD-8 skin cells,[3]; compound 300 ug/ml,"2,067 ± 302 cpm"
same,3H-Thymidine uptake by BUD-8 skin cells,[3]; compound 750 ug/ml,"3,496 ± 1,084 cpm"
